Reference: ChEMBL document CHEMBL1201862, “PubChem BioAssay data set” (2004)
The source made the active and inactive calls.

Key:
[1] = Luminescence Cell-Based Dose Retest to Confirm Inhibitors of Cancer Stem Cells. [Related pubchem assays (depositor defined):AID2717, AID2721]; format: functional; settings: Homo sapiens
[2] = molecular target: T1, Heat shock factor protein 1 (Mus musculus, UniProt P38532); assay: HSF1 potentiators in luciferase reporter cells, confirmation, cell-based, NIH3T3, luminescence, dose retest (AID 435004); format: functional;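 further: stress induced by proteasome inhibitor MG132 added 30 min after compound; luciferase reporter driven by HSF1 response element in NIH3T3 cells; actives raise luminescence as potentiators of the MG132 stress response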
T1 sequence (P38532 whole entry): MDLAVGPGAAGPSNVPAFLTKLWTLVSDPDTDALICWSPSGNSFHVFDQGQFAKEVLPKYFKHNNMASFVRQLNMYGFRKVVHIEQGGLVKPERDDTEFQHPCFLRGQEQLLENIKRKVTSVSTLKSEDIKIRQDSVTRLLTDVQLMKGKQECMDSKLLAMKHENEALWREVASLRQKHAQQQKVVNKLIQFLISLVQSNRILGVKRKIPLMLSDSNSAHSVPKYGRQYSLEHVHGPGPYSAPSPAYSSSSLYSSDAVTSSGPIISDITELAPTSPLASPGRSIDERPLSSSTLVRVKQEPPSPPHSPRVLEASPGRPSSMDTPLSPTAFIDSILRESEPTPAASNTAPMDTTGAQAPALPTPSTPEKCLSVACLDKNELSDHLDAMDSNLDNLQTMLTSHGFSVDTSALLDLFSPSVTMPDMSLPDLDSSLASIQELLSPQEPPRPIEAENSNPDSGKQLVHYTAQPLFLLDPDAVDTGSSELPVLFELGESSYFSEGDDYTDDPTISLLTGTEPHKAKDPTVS

[3] = molecular target: T2, Small ubiquitin-related modifier 1 (Homo sapiens, UniProt P63165); assay: inhibitors of SUMO1 peptide binding, dose response, biochemical, fluorescence polarization, uHTS hits (AID 624382); format: functional; settings: read-out: IC50_Mean
T2 sequence (P63165 whole entry): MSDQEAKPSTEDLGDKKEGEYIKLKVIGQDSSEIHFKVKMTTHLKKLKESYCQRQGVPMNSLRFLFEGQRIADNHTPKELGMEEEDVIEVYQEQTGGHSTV

[4] = molecular target: T2, Small ubiquitin-related modifier 1; assay: inhibitors of SUMO1 partner interactions, dose response, biochemical, FRET (AID 624383); format: functional; settings: read-out: IC50_Mean
[5] = molecular target: 26S proteasome non-ATPase regulatory subunit 14 (Homo sapiens, UniProt O00487); assay: inhibition of proteasome subunit RPN11 – biochemical, fluorescence polarization, uHTS hits, confirmation (AID 602368); format: functional
26S proteasome non-ATPase regulatory subunit 14, sequence (O00487 whole entry): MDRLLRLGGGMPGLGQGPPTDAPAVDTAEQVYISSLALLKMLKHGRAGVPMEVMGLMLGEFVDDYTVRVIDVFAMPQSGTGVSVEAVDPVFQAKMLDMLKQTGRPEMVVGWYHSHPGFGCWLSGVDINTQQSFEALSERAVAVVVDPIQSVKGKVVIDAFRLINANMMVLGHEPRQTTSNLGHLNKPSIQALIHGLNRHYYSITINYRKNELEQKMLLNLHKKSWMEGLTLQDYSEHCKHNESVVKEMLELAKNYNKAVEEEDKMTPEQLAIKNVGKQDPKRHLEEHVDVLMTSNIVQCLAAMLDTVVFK

[6] = molecular target: 72 kDa type IV collagenase (Homo sapiens, UniProt P08253); assay: Dose Response validation of uHTS RPN11 inhibitor hits using a MMP-2 Fluorescence assay.; format: functional
72 kDa type IV collagenase, sequence (P08253 whole entry): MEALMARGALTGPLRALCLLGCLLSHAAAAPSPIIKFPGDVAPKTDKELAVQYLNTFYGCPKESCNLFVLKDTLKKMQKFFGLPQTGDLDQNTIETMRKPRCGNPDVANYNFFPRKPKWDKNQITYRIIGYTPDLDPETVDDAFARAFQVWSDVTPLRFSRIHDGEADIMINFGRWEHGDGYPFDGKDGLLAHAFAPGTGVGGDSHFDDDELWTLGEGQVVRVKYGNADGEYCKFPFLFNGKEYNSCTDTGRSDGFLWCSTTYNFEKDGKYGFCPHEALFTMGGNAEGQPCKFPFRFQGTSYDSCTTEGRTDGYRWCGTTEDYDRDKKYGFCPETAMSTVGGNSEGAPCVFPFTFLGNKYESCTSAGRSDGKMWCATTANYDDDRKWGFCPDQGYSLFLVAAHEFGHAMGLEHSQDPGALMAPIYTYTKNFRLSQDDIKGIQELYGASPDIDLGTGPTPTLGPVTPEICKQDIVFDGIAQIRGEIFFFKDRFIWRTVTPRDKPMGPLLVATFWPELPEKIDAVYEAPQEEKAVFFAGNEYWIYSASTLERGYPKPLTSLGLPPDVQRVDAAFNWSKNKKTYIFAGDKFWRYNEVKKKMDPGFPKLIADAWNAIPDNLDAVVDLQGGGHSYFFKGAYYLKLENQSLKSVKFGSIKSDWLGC

Prothrombin = Prothrombin (Bos taurus, UniProt P00735); assay: thrombin inhibition, dose response, biochemical, fluorescence polarization, uHTS hits (AID 602369); format: functional
[7] = molecular target: T3, Rac GTPase-activating protein 1 (Homo sapiens, UniProt Q9H0H5); assay: MgcRacGAP GTPase-activating activity inhibitors, confirmation, biochemical, ADP Hunter fluorescence, primary and confirmatory (AID 624330); format: functional
T3 sequence (Q9H0H5 whole entry): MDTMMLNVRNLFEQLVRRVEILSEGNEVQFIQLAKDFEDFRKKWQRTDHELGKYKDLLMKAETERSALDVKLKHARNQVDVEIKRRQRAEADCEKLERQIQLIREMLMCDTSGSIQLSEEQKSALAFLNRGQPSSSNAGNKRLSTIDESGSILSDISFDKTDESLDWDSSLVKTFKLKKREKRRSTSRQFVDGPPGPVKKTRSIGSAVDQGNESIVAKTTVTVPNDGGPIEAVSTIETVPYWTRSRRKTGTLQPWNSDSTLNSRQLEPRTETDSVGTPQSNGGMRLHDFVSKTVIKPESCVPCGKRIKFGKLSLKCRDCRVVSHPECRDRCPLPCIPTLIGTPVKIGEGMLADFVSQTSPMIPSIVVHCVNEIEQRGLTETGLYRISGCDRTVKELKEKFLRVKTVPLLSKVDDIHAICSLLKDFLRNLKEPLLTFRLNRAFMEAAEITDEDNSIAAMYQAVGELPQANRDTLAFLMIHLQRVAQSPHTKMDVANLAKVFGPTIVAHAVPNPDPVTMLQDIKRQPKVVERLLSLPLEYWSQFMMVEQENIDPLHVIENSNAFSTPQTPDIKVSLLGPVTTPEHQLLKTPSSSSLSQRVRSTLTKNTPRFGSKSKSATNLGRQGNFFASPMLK

[8] = NIH-3T3 fibroblast cytotoxicity, dose response, cytotoxicity control, cell-based, fluorescence, Alamar Blue, secondary assay (AID 2327); format: functional;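 further: NIH-3T3 mouse fibroblasts cultured with fluconazole at 8 µg/mL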
[9] = C. albicans growth with fluconazole, confirmation, fluorescence, retest (AID 2467); format: functional, cell-based
[10] = molecular target: T4, Serine/threonine-protein phosphatase (Candida dubliniensis (strain CD36 / CBS 7987 / NCPF 3949 / NRRLY-17841) (Yeast), UniProt B9W6M3); assay: calcineurin pathway inhibitors in yeast reporter, dose response, S. cerevisiae, CDRE-lacZ, luminescence, secondary (AID 2388); format: functional, cell-based;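 further: yeast reporter cells carrying a calcineurin-responsive lacZ construct stimulated with calcium chloride; luminescent beta-galactosidase reporter signal in whole cells rather than isolated phosphatase activity; potency for inhibition where a drop in reporter signal means calcineurin blockade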
T4 sequence (B9W6M3 whole entry): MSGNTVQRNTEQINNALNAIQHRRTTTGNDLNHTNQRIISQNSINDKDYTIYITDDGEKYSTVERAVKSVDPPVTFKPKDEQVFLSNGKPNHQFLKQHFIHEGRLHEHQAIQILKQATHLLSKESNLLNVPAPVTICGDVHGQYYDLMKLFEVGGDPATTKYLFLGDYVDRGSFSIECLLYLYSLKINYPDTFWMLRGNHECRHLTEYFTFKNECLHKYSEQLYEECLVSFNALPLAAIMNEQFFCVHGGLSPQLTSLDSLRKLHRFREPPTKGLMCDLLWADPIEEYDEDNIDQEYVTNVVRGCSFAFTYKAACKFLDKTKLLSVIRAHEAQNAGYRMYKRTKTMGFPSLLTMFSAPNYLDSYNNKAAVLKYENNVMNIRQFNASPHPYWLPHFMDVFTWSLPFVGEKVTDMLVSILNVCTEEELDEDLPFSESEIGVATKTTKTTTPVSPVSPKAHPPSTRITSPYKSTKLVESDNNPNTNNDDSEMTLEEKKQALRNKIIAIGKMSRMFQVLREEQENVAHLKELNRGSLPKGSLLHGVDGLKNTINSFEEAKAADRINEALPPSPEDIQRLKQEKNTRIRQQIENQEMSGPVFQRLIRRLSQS

INS1 = assay: beta cell apoptosis inhibitors, cytokine rescue, dose response, luminescence, retest (AID 449756); format: functional, cell-based; settings: Rattus norvegicus;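 further: cell death triggered by IL-1 beta plus TNF-alpha plus IFN-gamma mixture; protective hits raise ATP signal compared with cytokine alone wells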
[11] = molecular target: ATP-dependent molecular chaperone HSP82 (Candida albicans (strain WO-1) (Yeast), UniProt C4YTQ8); assay: loss of DOC-induced GRE-beta-galactosidase reporter signal, dose response, Hsp90 inhibitor project, S. cerevisiae, luminescence (AID 2400); format: functional, cell-based;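 further: beta-galactosidase luminescence from glucocorticoid response element reporter as proxy for Hsp90 function; inhibitor potency where signal loss means Hsp90 inhibition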
ATP-dependent molecular chaperone HSP82, sequence (C4YTQ8 whole entry): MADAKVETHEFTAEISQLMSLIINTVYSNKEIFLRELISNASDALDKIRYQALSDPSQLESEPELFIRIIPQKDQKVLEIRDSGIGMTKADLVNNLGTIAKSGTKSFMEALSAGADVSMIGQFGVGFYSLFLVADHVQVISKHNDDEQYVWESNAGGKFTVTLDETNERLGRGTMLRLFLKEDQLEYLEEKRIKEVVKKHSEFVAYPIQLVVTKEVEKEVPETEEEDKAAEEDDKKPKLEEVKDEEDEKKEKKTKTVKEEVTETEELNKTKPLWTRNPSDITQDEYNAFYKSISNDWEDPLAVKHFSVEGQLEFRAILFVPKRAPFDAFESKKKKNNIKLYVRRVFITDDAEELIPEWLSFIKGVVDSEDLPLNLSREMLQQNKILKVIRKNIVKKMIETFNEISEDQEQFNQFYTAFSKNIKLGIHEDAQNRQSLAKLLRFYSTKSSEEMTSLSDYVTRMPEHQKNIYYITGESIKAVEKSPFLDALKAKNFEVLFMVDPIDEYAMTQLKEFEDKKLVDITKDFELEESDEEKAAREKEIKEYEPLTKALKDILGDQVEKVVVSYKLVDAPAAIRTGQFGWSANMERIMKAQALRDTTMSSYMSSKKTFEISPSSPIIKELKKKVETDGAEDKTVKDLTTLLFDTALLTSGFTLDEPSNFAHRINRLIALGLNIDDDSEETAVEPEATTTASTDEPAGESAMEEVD

Large T antigen = Large T antigen (Simian virus 40, UniProt P03070); format: functional, Betapolyomavirus macacae;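 further: Confirmatory-stage PubChem screen for compounds that inhibit SV40 T antigen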
Large T antigen, sequence (P03070 whole entry): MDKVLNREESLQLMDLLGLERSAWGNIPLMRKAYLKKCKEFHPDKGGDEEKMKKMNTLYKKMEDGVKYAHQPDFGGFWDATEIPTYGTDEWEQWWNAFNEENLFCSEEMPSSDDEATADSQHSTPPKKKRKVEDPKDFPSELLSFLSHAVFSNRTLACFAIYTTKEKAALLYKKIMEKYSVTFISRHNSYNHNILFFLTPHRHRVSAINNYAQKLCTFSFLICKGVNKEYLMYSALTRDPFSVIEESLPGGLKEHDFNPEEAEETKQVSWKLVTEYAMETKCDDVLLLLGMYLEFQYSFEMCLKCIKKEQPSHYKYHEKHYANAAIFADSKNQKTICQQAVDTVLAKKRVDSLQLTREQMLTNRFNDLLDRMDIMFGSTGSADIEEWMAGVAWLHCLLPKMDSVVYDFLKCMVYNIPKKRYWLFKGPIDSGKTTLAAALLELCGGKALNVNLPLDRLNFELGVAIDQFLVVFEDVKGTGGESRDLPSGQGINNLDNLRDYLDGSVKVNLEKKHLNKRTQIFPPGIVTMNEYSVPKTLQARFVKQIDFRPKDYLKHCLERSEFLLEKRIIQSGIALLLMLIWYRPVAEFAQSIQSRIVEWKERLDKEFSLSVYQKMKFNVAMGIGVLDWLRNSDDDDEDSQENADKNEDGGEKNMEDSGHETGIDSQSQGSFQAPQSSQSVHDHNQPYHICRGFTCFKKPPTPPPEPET

Galanin receptor type 3 = molecular target: T5, Galanin receptor type 3 (Homo sapiens, UniProt O60755); assay: Fluorescence-based cell-based primary high throughput dose response assay to identify antagonists of the Galanin Receptor 3 (GalR3).; format: functional
T5 sequence (O60755 whole entry): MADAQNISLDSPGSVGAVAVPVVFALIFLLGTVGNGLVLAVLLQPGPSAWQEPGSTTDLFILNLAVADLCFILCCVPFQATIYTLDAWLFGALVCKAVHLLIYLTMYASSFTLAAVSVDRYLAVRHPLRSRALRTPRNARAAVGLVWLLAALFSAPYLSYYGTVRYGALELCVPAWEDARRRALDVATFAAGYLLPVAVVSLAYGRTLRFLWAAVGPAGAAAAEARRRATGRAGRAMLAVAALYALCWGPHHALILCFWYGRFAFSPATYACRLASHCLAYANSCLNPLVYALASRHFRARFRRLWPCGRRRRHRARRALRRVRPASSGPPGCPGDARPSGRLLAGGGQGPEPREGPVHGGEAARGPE

cells = format: functional, cell-based; settings: HEK-CNG

## Cn1cc([N+](=O)[O-])c(C(=O)Nc2ccc(-c3nc4ccccc4o3)cc2)n1
[1]
  AC50: 2.45 µM (active)
[2]
  EC50: 6.61 µM (active)
[3]
  IC50: > 66.6 µM (inactive)
[4]
  IC50: 17.3 µM (active)

## CN1C=CC(=CC=C2C=CC(=O)C=C2)C=C1
[5]
  IC50: 31.2 µM (active)
[6]
  IC50: > 100 µM (inactive)
Prothrombin
  IC50: 62.7 µM (active)
[7]
  IC50: 18.4 µM (active)

## COc1ccc(C2C(C#N)=C(N)Oc3c2ccc2cccnc32)cc1OC (centres undefined)
[8]
  EC50: 19.1 µM (inconclusive)
[9]
  EC50: 5.01 µM (active)
[10]
  EC50: > 180 µM (inactive)
INS1
  AC50: 6.75 µM (active)
[11]
  EC50: > 150 µM (inactive)

## O=C1NC(=O)N(c2ccc(Cl)cc2)C(=O)/C1=C\c1ccc(Sc2nc3ccccc3[nH]2)o1
Large T antigen
  IC50: 18.8 µM (active)
[5]
  IC50: 42.2 µM (active)
[6]
  IC50: > 100 µM (inactive)
Prothrombin
  IC50: 44.9 µM (active)

## COCCn1c(C)cc(C(=O)COc2nc3ccccc3nc2C)c1C
Galanin receptor type 3
  IC50: 3.67 µM (active)
cells
  EC50: > 29.9 µM (inactive)
